Columns and labels:
[1] = target: ligand binding domain of human FXR (Homo sapiens (Human), UniProt Q96RI1); assay: FXR ligand binding assay (LanthaScreen TR-FRET, SRC2-2 peptide recruitment); details: for pEC50: -log EC50, concentration required to produce 50% activation; for Emax: extent of activation relative to GW4064, read-out: % Efficacy
Method: The affinity of FXR ligands for the ligand binding domain of FXR was determined using a commercially available human FXR ligand binding assay (LanthaScreen, Thermofisher Cat # PV4833). […] Binding of FXR ligands to the FXR ligand binding domain promotes binding of the fluorescein-labelled SRC2-2 peptide. This causes a FRET signal between the terbium-labelled anti-GST antibody and the fluorescein-labelled SRC peptide which are both bound to the FXR ligand binding domain.
Test compounds are dissolved in DMSO and a 3-fold serial dilution series is generated, then further diluted into assay buffer. The compounds are mixed with 5 nM GST-tagged FXR ligand binding domain, 5 nM Tb-labelled anti-GST antibody and 500 nM fluorescein-labelled SRC2-2 peptide in a pH7.4 buffer. The reaction is incubated at room temperature for 1 hour, then the FRET signal is measured as the ratio of the 520 nm/495 nm emission following excitation at 340 nm. The change in FRET signal is plotted against the test article concentration and fit to a 3-parameter logistical equation. The concentration required to produce 50% activation is expressed as pEC50 (−log EC50), and the extent of activation is expressed relative to GW4064 as % activation.

[2] = target: human Farnesoid X receptor ligand-binding domain/Gal4 DNA binding domain chimera (Homo sapiens (Human), UniProt Q96RI1); assay: Cell-based assay of FXR activation (FXR-UAS-bla HEK 293T beta-lactamase reporter); details: cellular FXR beta-lactamase reporter assay; for Emax: HEK-293T, extent of activation relative to GW4064, read-out: % Efficacy; for EC50: FXR-UAS-bla HEK 293T cells, 16 h, pEC50 = -log EC50
Method: FXR activation was measured using a cell line and procedure obtained from Life Technologies (Cat # K1691). FXR-UAS-bla HEK 293T cells contain a human Farnesoid X receptor ligand-binding domain/Gal4 DNA binding domain chimera stably integrated into the CellSensor® UAS-bla HEK 293T cell line. The CellSensor® UAS-bla HEK 293T contains a beta-lactamase reporter gene under control of a UAS response element stably integrated into HEK 293T cells. Activation of FXR by bound ligands results in transcriptional activation of the beta-lactamase reporter gene, which is detected via assay of beta-lactamase activity.
Cells are harvested and diluted into assay medium containing phenol red-free DMEM supplemented with 2% Charcoal-stripped FBS, pyruvate, non-essential amino acids. Cells are then transferred to a 384 well assay plate. Test compounds are dissolved in DMSO and a 3-fold serial dilution series is generated, then further diluted into assay medium. Compounds in assay medium are added to cells in the 384 well plate and allowed to incubate 16 h at 37 C in the presence of 5% CO2.
A FRET-based […] is loaded into cells as its acetomethoxy ester. Intracellular esterases liberate free CCF4, a cephalosporin core linking 7-hydroxycoumarin to fluorescein. In the presence of beta-lactamase activity produced in the presence of FXR agonists, cleavage of CCF4 spatially separates the two dyes and disrupts FRET, so that exciting the coumarin at 409 nm now produces a blue fluorescence signal at 447 nm. The change in FRET signal is plotted against the test compound concentration and fit to a 3-parameter logistical equation. The concentration required to produce 50% activation is expressed as pEC50 (−log EC50), and the extent of activation is expressed relative to GW4064 as % activation.

Chain of ligand binding domain of human FXR (Q96RI1 262-486): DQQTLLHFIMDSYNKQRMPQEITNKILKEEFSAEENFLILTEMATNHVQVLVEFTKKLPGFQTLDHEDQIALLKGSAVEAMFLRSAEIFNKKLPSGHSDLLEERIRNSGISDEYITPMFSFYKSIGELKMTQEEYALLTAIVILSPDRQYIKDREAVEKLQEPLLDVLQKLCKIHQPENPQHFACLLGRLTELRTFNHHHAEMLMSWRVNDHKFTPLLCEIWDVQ
Chain of human Farnesoid X receptor ligand-binding domain/Gal4 DNA binding domain chimera (Q96RI1 262-486, stated change not applied): as the sequence (Q96RI1 262-486) above
Chain of human Farnesoid X receptor ligand-binding domain/Gal4 DNA binding domain chimera (P04386 1-147 partner): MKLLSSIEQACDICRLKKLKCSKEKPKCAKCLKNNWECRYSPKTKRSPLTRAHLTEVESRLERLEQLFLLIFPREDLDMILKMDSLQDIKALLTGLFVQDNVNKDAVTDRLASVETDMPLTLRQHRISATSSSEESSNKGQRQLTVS

Compound | pEC50 [1] | Emax [1] [%] | Emax [2] [%] | EC50 [2] [nM]
O=C(O)[C@@H]1CCc2cc(N3C[C@@H]4C[C@H]3C[C@H]4OCc3c(-c4c(Cl)cccc4Cl)noc3C3CC3)ccc2C1 (single isomer, unassigned) [Compound I-137] | 8 | 132 | 106 | 10
O=C(O)[C@H]1CCc2cc(N3C[C@@H]4C[C@H]3C[C@H]4OCc3c(-c4c(Cl)cccc4Cl)noc3C3CC3)ccc2C1 (single isomer, unassigned) [Compound I-138] | 7.6 | 132 | 106 | 15.8
O=C(O)c1cc(F)c2nc(N3C[C@@H]4C[C@H]3C[C@H]4OC(=O)c3c(-c4c(Cl)cccc4Cl)noc3C3CC3)sc2c1 [Compound I-1, 2-[(1S,4S,5R)-5-[5-cyclopropyl-3-(2,6-dichlorophenyl)-1,2-oxazole-4-carbonyloxy]-2-azabicyclo[2.2.1]heptan-2-yl]-4-fluoro-1,3-benzothiazole-6-carboxylic Acid] | 7.4 | 148 | 126 | 10
O=C(O)c1ccc2nc(N3C[C@@H]4C[C@H]3C[C@H]4OC(=O)c3c(-c4c(Cl)cccc4Cl)noc3C3CC3)sc2c1 [Compound I-2, 2-[(1S,4S,5R)-5-[5-cyclopropyl-3-(2,6-dichlorophenyl)-1,2-oxazole-4-carbonyloxy]-2-azabicyclo[2.2.1]heptan-2-yl]-1,3-benzothiazole-6-carboxylic acid] | 7.3 | 138 | 120 | 10
Cc1cc(C(=O)O)cc2sc(N3C[C@@H]4C[C@H]3C[C@H]4OC(=O)c3c(-c4c(Cl)cccc4Cl)noc3C3CC3)nc12 [Compound I-3, 2-[(1S,4S,5R)-5-[5-cyclopropyl-3-(2,6-dichlorophenyl)-1,2-oxazole-4-carbonyloxy]-2-azabicyclo[2.2.1]heptan-2-yl]-4-methyl-1,3-benzothiazole-6-carboxylic acid] | 7.6 | 153 | 123 | 5.01
O=C(O)c1cc(C2CC2)c2nc(N3C[C@@H]4C[C@H]3C[C@H]4OC(=O)c3c(-c4c(Cl)cccc4Cl)noc3C3CC3)sc2c1 [Compound I-4, 4-cyclopropyl-2-[(1S,4S,5R)-5-[5-cyclopropyl-3-(2,6-dichlorophenyl)-1,2-oxazole-4-carbonyloxy]-2-azabicyclo[2.2.1]heptan-2-yl]-1,3-benzothiazole-6-carboxylic acid] | 7.3 | 166 | 112 | 3.16
O=C(O)c1cc(C(F)(F)F)c2nc(N3C[C@@H]4C[C@H]3C[C@H]4OC(=O)c3c(-c4c(Cl)cccc4Cl)noc3C3CC3)sc2c1 [Compound I-5, 2-[(1S,4S,5R)-5-[5-cyclopropyl-3-(2,6-dichlorophenyl)-1,2-oxazole-4-carbonyloxy]-2-azabicyclo[2.2.1]heptan-2-yl]-4-(trifluoromethyl)-1,3-benzothiazole-6-carboxylic acid] | 7.2 | 139 | 102 | 39.8
O=C(O)c1cc(OC(F)(F)F)c2nc(N3C[C@@H]4C[C@H]3C[C@H]4OC(=O)c3c(-c4c(Cl)cccc4Cl)noc3C3CC3)sc2c1 [Compound I-6] | 7.7 | 173 | 112 | 3.98
O=C(O)c1cc(OCC(F)(F)F)c2nc(N3C[C@@H]4C[C@H]3C[C@H]4OC(=O)c3c(-c4c(Cl)cccc4Cl)noc3C3CC3)sc2c1 [Compound I-7, 2-[(1S,4S,5R)-5-[5-cyclopropyl-3-(2,6-dichlorophenyl)-1,2-oxazole-4-carbonyloxy]-2-azabicyclo[2.2.1]heptan-2-yl]-4-(2,2,2-trifluoroethoxy)-1,3-benzothiazole-6-carboxylic acid] | 7.4 | 162 | 119 | 5.01
CCOc1cc(C(=O)O)cc2sc(N3C[C@@H]4C[C@H]3C[C@H]4OC(=O)c3c(-c4c(Cl)cccc4Cl)noc3C3CC3)nc12 [Compound I-8, 2-[(1S,4S,5R)-5-[5-cyclopropyl-3-(2,6-dichlorophenyl)-1,2-oxazole-4-carbonyloxy]-2-azabicyclo[2.2.1]heptan-2-yl]-4-ethoxy-1,3-benzothiazole-6-carboxylic acid] | 7.6 | 137 | 106 | 2.51
O=C(O)c1cc(OC(F)(F)F)c2nc(N3C[C@@H]4C[C@H]3C[C@H]4OC(=O)c3c(-c4ccccc4C(F)(F)F)noc3C3CC3)sc2c1 [Compound I-9, 2-[(1S,4S,5R)-5-{5-cyclopropyl-3-[2-(trifluoromethyl)phenyl]-1,2-oxazole-4-carbonyloxy}-2-azabicyclo[2.2.1]heptan-2-yl]-4-(trifluoromethoxy)-1,3-benzothiazole-6-carboxylic Acid] | 7.1 | 172 | 107 | 5.01
O=C(O)c1cc(F)c2nc(N3C[C@@H]4C[C@H]3C[C@H]4OC(=O)c3c(-c4c(Cl)cccc4Cl)noc3C3(F)CC3)sc2c1 [Compound I-10, 2-[(1S,4S,5R)-5-[3-(2,6-dichlorophenyl)-5-(1-fluorocyclopropyl)-1,2-oxazole-4-carbonyloxy]-2-azabicyclo[2.2.1]heptan-2-yl]-4-fluoro-1,3-benzothiazole-6-carboxylic Acid] | 7 | 145 | 111 | 25.1
O=C(O)c1cc(F)c2nc(N3C[C@@H]4C[C@H]3C[C@H]4OC(=O)c3c(C45CCC(CC4)CC5)noc3C3CC3)sc2c1 [Compound I-11, 2-[(1S,4S,5R)-5-(3-{bicyclo[2.2.2]octan-1-yl}-5-cyclopropyl-1,2-oxazole-4-carbonyloxy)-2-azabicyclo[2.2.1]heptan-2-yl]-4-fluoro-1,3-benzothiazole-6-carboxylic Acid] | 7.7 | 15 | 28 | 251
O=C(O)c1cc(F)c2nc(N3C[C@@H]4C[C@H]3C[C@H]4OCc3c(-c4c(Cl)cccc4Cl)noc3C3CC3)sc2c1 [Compound I-12, 2-[(1S,4S,5R)-5-{[5-cyclopropyl-3-(2,6-dichlorophenyl)-1,2-oxazol-4-yl]methoxy}-2-azabicyclo[2.2.1]heptan-2-yl]-4-fluoro-1,3-benzothiazole-6-carboxylic Acid] | 9 | 153 | 122 | 0.1
C[C@H]1[C@H]2C[C@H](C[C@@H]2OCc2c(-c3c(Cl)cccc3Cl)noc2C2CC2)N1c1ccc(C(=O)NS(=O)(=O)C2CCOCC2)nc1 [Compound I-372, 5-[(1R,3S,4R,5S)-5-[[5-cyclopropyl-3-(2,6-dichlorophenyl)-1,2-oxazol-4-yl]methoxy]-3-methyl-2-azabicyclo[2.2.1]heptan-2-yl]-N-(oxane-4-sulfonyl)pyridine-2-carboxamide] | 6.1 | 22 | – | –
C[C@@H]1[C@@H]2C[C@@H](C[C@H]2OCc2c(-c3c(Cl)cccc3Cl)noc2C2CC2)N1c1ccc(C(=O)NS(=O)(=O)C2CCOCC2)cn1 [Compound I-373, 6-[(1S,3R,4S,5R)-5-[[5-cyclopropyl-3-(2,6-dichlorophenyl)-1,2-oxazol-4-yl]methoxy]-3-methyl-2-azabicyclo[2.2.1]heptan-2-yl]-N-(oxane-4-sulfonyl)pyridine-3-carboxamide] | 7.2 | 62 | – | –
C[C@H]1[C@H]2C[C@H](C[C@@H]2OCc2c(-c3c(Cl)cccc3Cl)noc2C2CC2)N1c1ccc(C(=O)NS(=O)(=O)C2CCOCC2)cn1 [Compound I-374, 6-[(1R,3S,4R,5S)-5-[[5-cyclopropyl-3-(2,6-dichlorophenyl)-1,2-oxazol-4-yl]methoxy]-3-methyl-2-azabicyclo[2.2.1]heptan-2-yl]-N-(oxane-4-sulfonyl)pyridine-3-carboxamide] | 6 | 48 | – | –

From patent US10793568B2, “Hormone receptor modulators for treating metabolic conditions and disorders” (ARDELYX, INC., priority 2016, dated 2020)
